Source: patent US20260250289A1, “BICYCLIC HETEROCYCLES AND THEIR USE AS WRN INHIBITORS” (Novartis AG, priority 2022, published 2026)
pIC50: −log10 of the molar value. Like-named read-outs stand apart in the source and are kept apart here.

Assays:
[1] = biological target: T1, WRN helicase (aa N517-P1238) (Homo sapiens, UniProt Q14191); assay: WRN ATPase assay (DNA dependent ATP hydrolysis, ADP-Glo); type: biochemical; settings: 3 hours pre-incubation, 300 micromolar ATP, FLAP26 DNA; geometric mean of at least 2
T1 construct: The core helicase motif of the WRN protein (aa N517-P1238) was produced for this assay; His (N); ZZ (N); 3C protease cleavage site (N); made in house; host or cells: Sf21 insect cells (baculovirus; virus and BIICs made in SF9)
T1 sequence (Q14191 517-1238): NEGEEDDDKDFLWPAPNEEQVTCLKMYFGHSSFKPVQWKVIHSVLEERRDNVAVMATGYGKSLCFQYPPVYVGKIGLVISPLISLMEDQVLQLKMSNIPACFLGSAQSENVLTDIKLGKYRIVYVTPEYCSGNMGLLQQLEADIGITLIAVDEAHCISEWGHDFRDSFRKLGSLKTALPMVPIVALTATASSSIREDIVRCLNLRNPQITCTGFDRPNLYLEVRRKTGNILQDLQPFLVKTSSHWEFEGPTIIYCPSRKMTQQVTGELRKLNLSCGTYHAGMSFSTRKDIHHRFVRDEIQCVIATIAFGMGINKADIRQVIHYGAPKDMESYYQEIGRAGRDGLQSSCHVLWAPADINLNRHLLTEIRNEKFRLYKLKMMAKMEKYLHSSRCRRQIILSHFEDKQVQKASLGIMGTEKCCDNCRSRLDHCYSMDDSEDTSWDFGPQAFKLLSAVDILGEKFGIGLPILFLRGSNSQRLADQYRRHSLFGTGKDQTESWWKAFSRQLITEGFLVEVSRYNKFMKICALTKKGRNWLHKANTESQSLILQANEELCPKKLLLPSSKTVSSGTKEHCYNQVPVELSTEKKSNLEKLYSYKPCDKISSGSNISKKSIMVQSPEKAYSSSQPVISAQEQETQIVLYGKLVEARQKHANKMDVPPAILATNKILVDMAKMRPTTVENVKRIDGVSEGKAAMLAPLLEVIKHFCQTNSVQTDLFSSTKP
In short: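 DNA-dependent ATP hydrolysis detected as ADP by ADP-Glo luminescence, using 300 μM ATP, 0.2 nM FLAP26 substrate and 10 nM WRN aa N517-P1238 (Tris pH 7.5 buffer, 2 mM MgCl2, 50 mM NaCl). IC50s fitted from normalized duplicate half-log dilutions; reported as geometric means of at least 2 replicates.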

[2] = test system: DLD1-WRN-KO cells; assay: Proliferation assay DLD1-WRN-KO (CellTiterGlo, off-target effects); type: cell-based; settings: 96 hours, geometric mean of at least 2
In short: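 DLD1 cells with CRISPR knockout of WRN were exposed overnight-seeded to eight 3-fold compound dilutions (0.1% DMSO) for 96 h at 37 °C. Viability was read as ATP by CellTiterGlo luminescence against a day-0 plate, giving GI50 and residual viability at top concentration.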

[3] = test system: SW48 cells; assay: Proliferation assay SW48 (CellTiterGlo); type: cell-based; settings: SW48 colon carcinoma cells, 96 hours, CellTiterGlo, geometric mean of at least 2, read-out: Proliferation Assay SW48 GI50
In short: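 SW48 cells, 2,000/well, treated after overnight seeding with eight 3-fold compound dilutions (0.1% DMSO) for 96 hours at 37° C. Viability read as ATP by CellTiterGlo luminescence, normalised to a day-0 plate and vehicle to give % growth; GI50 is geometric mean of ≥2 independent replicates.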

Compound	pIC50 [1]	GI50 [2]	GI50 ([3]; Homo sapiens, SW48, 96 h)	GI50 [3]
CCc1c(N2CCN(C(C)=O)CC2)c(=O)n2nc(C3=CCC(OC)CC3)nc2n1CC(=O)Nc1ccc(C(F)(F)F)cc1 (stereo not drawn) [Example 55, 2-(6-(4-acetylpiperazin-1-yl)-5-ethyl-2-(4-methoxycyclohex-1-en-1-yl)-7-oxo-[1,2,4]triazolo[1,5-a]pyrimidin-4(7H)-yl)-N-(4-(trifluoromethyl)phenyl)acetamide]	7.00	> 10000 nM	800 nM	
CCc1c(N2CCN(C(=O)C3CCOC3)CC2)c(=O)n2nc(C3=CCCCO3)nc2n1CC(=O)Nc1ccc(C(F)(F)F)cc1 (stereo not drawn) [Example 56, 2-(2-(3,4-dihydro-2H-pyran-6-yl)-5-ethyl-7-oxo-6-(4-(tetrahydrofuran-3-carbonyl)piperazin-1-yl)-[1,2,4]triazolo[1,5-a]pyrimidin-4(7H)-yl)-N-(4-(trifluoromethyl)phenyl)acetamide]	7.00	> 10000 nM		1000 nM
CCc1c(N2CCN(C(C)=O)CC2)c(=O)n2nc(C3=CCCCO3)nc2n1CC(=O)Nc1ccc(C(F)(F)F)cc1 [Example 57, 2-(6-(4-acetylpiperazin-1-yl)-2-(3,4-dihydro-2H-pyran-6-yl)-5-ethyl-7-oxo-[1,2,4]triazolo[1,5-a]pyrimidin-4(7H)-yl)-N-(4-(trifluoromethyl)phenyl)acetamide]	7.00	> 10000 nM	1000 nM	
CCc1c(N2CCN(C(=O)C3CCOC3)CC2)c(=O)n2nc(C3=CCCCO3)nc2n1CC(=O)Nc1ccc(C(F)(F)F)cc1 (stereo not drawn) [Example 60, 2-(2-(3,4-dihydro-2H-pyran-6-yl)-5-ethyl-7-oxo-6-(4-(tetrahydrofuran-3-carbonyl)piperazin-1-yl)-[1,2,4]triazolo[1,5-a]pyrimidin-4(7H)-yl)-N-(4-(trifluoromethyl)phenyl)acetamide]	6.52	> 10000 nM		3000 nM
CCc1c(N2CCN(C(=O)C3CCOC3)CC2)c(=O)n2nc(C3=CCCCO3)nc2n1CC(=O)Nc1ccc(C(F)(F)F)cc1 (stereo not drawn) [Example 61, 2-(2-(3,4-dihydro-2H-pyran-6-yl)-5-ethyl-7-oxo-6-(4-(tetrahydrofuran-3-carbonyl)piperazin-1-yl)-[1,2,4]triazolo[1,5-a]pyrimidin-4(7H)-yl)-N-(4-(trifluoromethyl)phenyl)acetamide]	6.40	> 10000 nM		4000 nM
CC(=O)N1CCN(c2c(C)n(CC(=O)Nc3ccc(S(F)(F)(F)(F)F)cc3C)c3nc(C4=CCOCC4)nn3c2=O)CC1 [Example 62, 2-(6-(4-acetylpiperazin-1-yl)-2-(3,6-dihydro-2H-pyran-4-yl)-5-methyl-7-oxo-[1,2,4]triazolo[1,5-a]pyrimidin-4(7H)-yl)-N-(2-methyl-4-(pentafluoro-l6-sulfaneyl)phenyl)acetamide]	6.30	> 10000 nM	1000 nM	
CC(=O)N1CCN(c2c(C)n(CC(=O)Nc3ccc(C(F)(F)F)cc3)c3nc(C4=CCOCC4)nn3c2=O)C[C@H]1C [Example 63, (R)-2-(6-(4-acetyl-3-methylpiperazin-1-yl)-2-(3,6-dihydro-2H-pyran-4-yl)-5-methyl-7-oxo-[1,2,4]triazolo[1,5-a]pyrimidin-4(7H)-yl)-N-(4-(trifluoromethyl)phenyl)acetamide]	6.30	> 10000 nM	4000 nM	
Cc1c(N2CCN(C(=O)OCc3ccccc3)CC2)c(=O)n2nc(C3=CCOCC3)nc2n1CC(=O)Nc1ccc(C(F)(F)F)cc1 [Example 65, benzyl 4-(2-(3,6-dihydro-2H-pyran-4-yl)-5-methyl-7-oxo-4-(2-oxo-2-((4-(trifluoromethyl)phenyl)amino)ethyl)-4,7-dihydro-[1,2,4]triazolo[1,5-a]pyrimidin-6-yl)piperazine-1-carboxylate]	5.10	4000 nM	4000 nM	

Next, values leading:

pIC50 [1]	GI50 [2]	GI50 ([3]; Homo sapiens, SW48, 96 h)	GI50 [3]	Compound
6.52	> 10000 nM	1000 nM		CCc1c(N2CCN(C(=O)c3nccc4cccc(O)c34)CC2)c(=O)n2nc(C3=CCOCC3)nc2n1CC(=O)Nc1ccc(C(F)(F)F)cc1C [Example 50, 2-(2-(3,6-dihydro-2H-pyran-4-yl)-5-ethyl-6-(4-(8-hydroxyisoquinoline-1-carbonyl)piperazin-1-yl)-7-oxo-[1,2,4]triazolo[1,5-a]pyrimidin-4(7H)-yl)-N-(2-methyl-4-(trifluoromethyl)phenyl)acetamide]
6.22	7000 nM	2000 nM		CCc1c(N2CCN(C(=O)c3ncc(F)c4cc[nH]c34)CC2)c(=O)n2nc(C3=CCOCC3)nc2n1CC(=O)Nc1ccc(C(F)(F)F)cc1C [Example 51, 2-(2-(3,6-dihydro-2H-pyran-4-yl)-5-ethyl-6-(4-(4-fluoro-1H-pyrrolo[2,3-c]pyridine-7-carbonyl)piperazin-1-yl)-7-oxo-[1,2,4]triazolo[1,5-a]pyrimidin-4(7H)-yl)-N-(2-methyl-4-(trifluoromethyl)phenyl)acetamide]
7.30	> 10000 nM	3000 nM		CCc1c(N2CCN(C(=O)c3cn(C)c(=O)[nH]3)CC2)c(=O)n2nc(C3=CCCC3)nc2n1CC(=O)Nc1ccc(C(F)(F)F)cc1 [Example 52, 2-(2-(cyclopent-1-en-1-yl)-5-ethyl-6-(4-(1-methyl-2-oxo-2,3-dihydro-1H-imidazole-4-carbonyl)piperazin-1-yl)-7-oxo-[1,2,4]triazolo[1,5-a]pyrimidin-4(7H)-yl)-N-(4-(trifluoromethyl)phenyl)acetamide]
7.22	> 10000 nM	800 nM		CCc1c(N2CCN(C(=O)c3nn(C)c(=O)[nH]3)CC2)c(=O)n2nc(C3=CCC(OC)CC3)nc2n1CC(=O)Nc1ccc(C(F)(F)F)cc1 (stereo not drawn) [Example 53, 2-(5-ethyl-2-(4-methoxycyclohex-1-en-1-yl)-6-(4-(1-methyl-5-oxo-4,5-dihydro-1H-1,2,4-triazole-3-carbonyl)piperazin-1-yl)-7-oxo-[1,2,4]triazolo[1,5-a]pyrimidin-4(7H)-yl)-N-(4-(trifluoromethyl)phenyl)acetamide]
7.00	> 10000 nM	1000 nM		CCc1c(N2CCN(C(C)=O)CC2)c(=O)n2nc(C3=CCOCC3)nc2n1CC(=O)Nc1ccc(C(F)(F)F)cc1 [Example 54, 2-(6-(4-acetylpiperazin-1-yl)-2-(3,6-dihydro-2H-pyran-4-yl)-5-ethyl-7-oxo-[1,2,4]triazolo[1,5-a]pyrimidin-4(7H)-yl)-N-(4-(trifluoromethyl)phenyl)acetamide]
7.00	> 10000 nM	2000 nM		CCc1c(N2CCN(C(C)=O)CC2)c(=O)n2nc(C3=CCOCC3)nc2n1CC(=O)Nc1ccc(C(F)(F)F)cc1C [Example 58, 2-(6-(4-acetylpiperazin-1-yl)-2-(3,6-dihydro-2H-pyran-4-yl)-5-ethyl-7-oxo-[1,2,4]triazolo[1,5-a]pyrimidin-4(7H)-yl)-N-(2-methyl-4-(trifluoromethyl)phenyl)acetamide]
6.52	> 10000 nM	1000 nM		CCc1c(N2CCN(C(C)=O)CC2)c(=O)n2nc(C3=CCOCC3)nc2n1CC(=O)Nc1ccc(C(F)(F)F)cc1Cl [Example 59, 2-(6-(4-acetylpiperazin-1-yl)-2-(3,6-dihydro-2H-pyran-4-yl)-5-ethyl-7-oxo-[1,2,4]triazolo[1,5-a]pyrimidin-4(7H)-yl)-N-(2-chloro-4-(trifluoromethyl)phenyl)acetamide]
6.05	> 10000 nM	4000 nM		CC(=O)N1CCN(c2c(C)n(CC(=O)Nc3ccc(C(F)(F)F)cc3C)c3nc(C4=CCOCC4)nn3c2=O)CC1 [Example 64, 2-(6-(4-acetylpiperazin-1-yl)-2-(3,6-dihydro-2H-pyran-4-yl)-5-methyl-7-oxo-[1,2,4]triazolo[1,5-a]pyrimidin-4(7H)-yl)-N-(2-methyl-4-(trifluoromethyl)phenyl)acetamide]
7.52	> 10000 nM	300 nM		CCc1c(N2CCN(C(=O)c3nsnc3O)CC2)c(=O)n2nc(C3=CCOCC3)nc2n1CC(=O)Nc1ccc(C(F)(F)F)cc1Cl [Example 66, N-(2-chloro-4-(trifluoromethyl)phenyl)-2-(2-(3,6-dihydro-2H-pyran-4-yl)-5-ethyl-6-(4-(4-hydroxy-1,2,5-thiadiazole-3-carbonyl)piperazin-1-yl)-7-oxo-[1,2,4]triazolo[1,5-a]pyrimidin-4(7H)-yl)acetamide]
6.52	> 10000 nM	3000 nM		CCc1c(N2CCN(C(=O)c3ncn(C)c3O)CC2)c(=O)n2nc(C3=CCOCC3)nc2n1CC(=O)Nc1ccc(C(F)(F)F)cc1Cl [Example 67, N-(2-chloro-4-(trifluoromethyl)phenyl)-2-(2-(3,6-dihydro-2H-pyran-4-yl)-5-ethyl-6-(4-(5-hydroxy-1-methyl-1H-imidazole-4-carbonyl)piperazin-1-yl)-7-oxo-[1,2,4]triazolo[1,5-a]pyrimidin-4(7H)-yl)acetamide]
